Assay results: patent US5403574A, “Evaluation and treatment of the multidrug resistance phenotype” (priority 1992, dated 1995)
“Also recorded” adds a separate entry of the source.

Columns and labels:
V79 and LZ cells = test: Cell survival / cytotoxicity, V79 and LZ cells (sulforhodamine B); type: cell-based, hamster; details: 72 hours
Experimental: (§1) FIG. 5. Cell survival studies and LD50 determination showing cytotoxicity of a ^99 Tc-isonitrile complex that is transported by the P-glycoprotein in vitro. Survival of parental V79 and multidrug resistant LZ cells (A) and parental Alex and multidrug resistant Alex/A.5 cells (B) in increasing concentrations of carrier-added ^99 Tc-MIBI. Methods: Cell survival assays were performed by plating 4,000-20,000 cells per well in 96 well microtiter plates in triplicate in three separate experiments. V79 and LZ cells were grown essentially as described in Example 2 while Alex and Alex/A.5 were grown as described by Goldstein, L., et al., J. Natl. Cancer Inst. 81:116 (1989). Multidrug resistant cells were cultured in drug free media for 72-96 hours prior to culture in ^99 Tc-MIBI. Surviving cells were assayed by staining with sulforhodamine B (Mazzanti, R., et al., J. Cell Pharmacol. 1:50 (1990)) at 72 hours for V79 and LZ cells or 96 hours for Alex and Alex A.5 cells. Survival was expressed as the percentage of surviving cells relative to growth in alpha-MEM media without ^99 Tc-MIBI. […] LD50 determinations were obtained by interpolation from the cell survival curves.
(§2) Micromolar concentrations of carrier-added 99Tc-MIBI is shown to be cytotoxic in hamster lung fibroblast cells (A) and human carcinoma cells (B) (FIG. 5). […]

Alex and Alex/A.5 cells = test: Cell survival / cytotoxicity, Alex and Alex/A.5 cells (sulforhodamine B); type: cell-based, human
Experimental: as §1, §2

[1] = tested on: LZ cells (multidrug resistance P-glycoprotein)
Experimental: (§3) Accumulation of Tc-MIBI in LZ cells (highly expressing multidrug resistance) (0) and V79 cells (modestly expressing multidrug resistance) (.cndot.).
(§4) Cell-associated activity was then determined.

[2] = tested on: V79 cells (multidrug resistance P-glycoprotein)
Experimental: as §3, §4

[3] = whole body imaging agent; cited from earlier work
tumors = details: human, in vivo; cited from earlier work
P-glycoprotein = details: cited from earlier work
mitochondrial function = details: typical loading activities; cited from earlier work
[4] = tested on: P-glycoprotein enriched membrane vesicles; details: multidrug resistant cell vesicles; cited from earlier work
cells and mitochondria = details: cited from earlier work

[99Tc].[C-]#[N+]CC(C)(C)OC.[C-]#[N+]CC(C)(C)OC.[C-]#[N+]CC(C)(C)OC.[C-]#[N+]CC(C)(C)OC.[C-]#[N+]CC(C)(C)OC.[C-]#[N+]CC(C)(C)OC [Tc-MIBI, hexakis (2-methoxyisobutyl isonitrile) technetium-99m (I)]
Toxicity in drug-sensitive V79 compared to multidrug-resistant derivative (LZ) (V79 and LZ cells; V79 vs LZ): 11 fold
Cytotoxicity in hamster lung fibroblast cells (V79 and LZ cells; micromolar concentrations, carrier-added): cytotoxic
Toxicity in drug-sensitive human Alexander cells compared to multidrug-resistant derivative (Alex/A.5) (Alex and Alex/A.5 cells; Alex vs Alex/A.5, 96 hours): 13 fold
Cytotoxicity in human carcinoma cells (Alex and Alex/A.5 cells; micromolar concentrations, carrier-added, 96 hours): cytotoxic
Net accumulation of Tc-MIBI [1]: 0.3 fmoles Tc-MIBI/mg protein per nmolar extracellular Tc-MIBI
Plateau net accumulation in V79 cells relative to LZ cells [2]: 20 fold
Toxic activity at imaging doses [3]: no toxic activity; also recorded: without chemotoxic effects
Uptake within known bronchial carcinomas (tumors): uptake
Uptake within mediastinal and pulmonary metastasis from thyroid cancer (tumors): uptake
Uptake within untreated malignant lung lesions (tumors): uptake

CCOC(=O)C1=C(C)NC(C)=C(C(=O)OCCNC(=O)c2ccc(N=[N+]=[N-])cc2)C1c1ccccc1C(F)(F)F (centres unmarked) [azidopine]
Inhibition of photoaffinity labeling of P-glycoprotein by vinblastine analog (P-glycoprotein): inhibited

c1ccc([P+](c2ccccc2)(c2ccccc2)c2ccccc2)cc1 [TPP^+]
Toxic effects on mitochondrial function (mitochondrial function): toxic effects on mitochondrial function

CC[C@]1(O)C[C@H]2CN(CCc3c([nH]c4ccccc34)[C@@](C(=O)OC)(c3cc4c(cc3OC)N(C=O)[C@H]3[C@@](O)(C(=O)OC)[C@H](OC(C)=O)[C@]5(CC)C=CCN6CC[C@]43[C@@H]65)C2)C1 [vincristine]
Inhibition of photoaffinity labeling of P-glycoprotein by vinblastine analog (P-glycoprotein): inhibited
Inhibition of labeled vinblastine accumulation in vesicles [4]: inhibited

COC(=O)c1ccccc1-c1c2ccc(=N)cc-2oc2cc(N)ccc12 [rhodamine 123]
Toxicity to cells and mitochondria (cells and mitochondria): toxic to cells and mitochondria
Toxic effects on mitochondrial function (mitochondrial function): toxic effects on mitochondrial function

CC[C@]1(O)C[C@@H]2CN(CCc3c([nH]c4ccccc34)[C@@](C(=O)OC)(c3cc4c(cc3OC)N(C)[C@H]3[C@@](O)(C(=O)OC)[C@H](OC(C)=O)[C@]5(CC)C=CCN6CC[C@]43[C@@H]65)C2)C1 [vinblastine]
Inhibition of labeled vinblastine accumulation in vesicles [4]: inhibited

COc1cccc2c1C(=O)c1c(O)c3c(c(O)c1C2=O)C[C@@](O)(C(C)=O)C[C@@H]3O[C@H]1C[C@H](N)[C@H](O)[C@H](C)O1 [daunomycin]
Inhibition of photoaffinity labeling of P-glycoprotein by vinblastine analog (P-glycoprotein): inhibited

C=C[C@H]1C[N@@]2CC[C@H]1C[C@@H]2[C@@H](O)c1ccnc2ccc(OC)cc12 [Quinidine]
Inhibition of photoaffinity labeling of P-glycoprotein by vinblastine analog (P-glycoprotein): inhibited

COC(=O)[C@H]1[C@H]2C[C@@H]3c4[nH]c5cc(OC)ccc5c4CCN3C[C@H]2C[C@@H](OC(=O)c2cc(OC)c(OC)c(OC)c2)[C@@H]1OC [reserpine]
Inhibition of photoaffinity labeling of P-glycoprotein by vinblastine analog (P-glycoprotein): inhibited
